Data on six substances can be found in patent EP3771719A1, “A PEPTIDE BINDING TO TAU-PROTEIN” (Hochschule für angewandte Wissenschaften Fachhochschule …, priority 2019, dated 2021).

Non-standard residues stand in square brackets, D forms with d. No end group written: not given here.

One experiment relates to tau-protein. Briefly: ThT aggregation assay of tau-protein with heparin. The format is biochemical. Conditions: 24 µM tau, 6 µM heparin, 36 h. The method, then: A ThT-aggregation assay of tau was performed for quantifying the relative content of fibrils in the presence of peptides and heparin (6 µM). The concentration of tau-protein was 24 µM, the peptides were added at a ratio of 1:5 and 1:10 (tau-protein:peptide). The fluorescence measured of 24 µM tau-protein after incubation for 36h was arbitrarily set to be 100%, and the measured values and standard deviations of the other incubations are indicated as percentage proportions of this maximum value.
A ThT-aggregation assay of tau was performed for quantifying the relative content of fibrils in the presence of peptides and heparin (6 µM). Here, the D-enantiomers of the peptides and their retro-inverso-versions are used. "retro-inverso-version" as used herein, refers to a sequence wherein the amino acid sequence of one peptide, as read from its N-terminus to its C-terminus, has been reversed, such that the N-terminus and C-terminus of the peptide sequence have been inverted. The concentration of tau-protein was 24 µM, and the peptides MMD2 and MMD2rev were added at a ratio of 1:10. The peptides MMD3 and MMD3rev were added at a ratio of 1:5 and 1:10 (tau-protein:peptide). The fluorescence of tau-protein at 24 µM after an incubation of 36 h was arbitrarily set to be 100% and the measured values and standard deviations of the other incubations are indicated as percentage proportions of this maximum value.
To test the ability of the L-synthesized peptides to inhibit the aggregation of tau in vitro, thioflavin assays were performed. The peptides were added to the aggregation mix in a molar ratio of 1:5 and/or 1:10 (tau:peptide), respectively. As positive control, tau was incubated with heparin without addition of peptides, negative controls were tau alone with THT and buffer including THT. The relative fluorescence of the positive control was set to be 100% after 36 h of incubation and the relative fluorescence of the samples was normalized to the positive control.
To investigate the potential of the selected D-peptides MMD2, MMD2rev, MMD3 and MMD3rev to inhibit fibrillization of full-length tau, thioflavin fluorescence assays were performed. Tau aggregation was initiated by addition heparin to tau protein in a concentration of 24 µM, the mixtures were incubated in absence or presence of the respective peptide in a molar ratio of 1:10, in case of MMD2 as well as MMD2rev, and in molar ratio 1:10 and 1:5, in case of MMD3 and MMD3rev. After 36 hours of incubation, the fluorescence of the tau and heparin control sample reached a saturation level, and the value of fluorescence was set to 100%. […] MMD2 reduce the aggregation of tau to about 90% and MMD2rev reduce the aggregation to about 70%. […] The inventors observed also that ThT fluorescence decreased with increasing concentration of the MMD3 and MMD3rev signifying a robust dose-dependent inhibition of full-length tau aggregation.

The next experiment has as its system PHF6*. Briefly: Thioflavin T test of PHF6* aggregation. Conditions: 1000 µM peptide, 100 µM PHF6*, 10 µM thioflavin T, RT, ThT fluorescence monitored over 30 h. It counts as biochemical. The method, then: PHF6*-fibrils are fibrils comprising the D-enantiomeric version of tau-peptide VQIINK (SEQ ID NO: 5). Peptides MMD3 and MMD3rev were diluted in sodium phosphate buffer to 1000 µM, and 100 µM PHF6*-solution and 10 µM thioflavin T were added. 100 µM PHF6* and 10 µM thioflavin in Napi-buffer was used as positive control. The negative control was 10 µM thioflavin T in Napi-buffer only. The samples were pipetted into a black 96-well µclear flat-bottom plate and incubated for 30 h,the relative fluorescence (excitation = 440 nm and emission = 480 nm) was determined. Triplicate measurements were performed for each sample.
To test whether MMD3 and MMD3rev reduce PHF6* fibril formation, 1000 µM from the respective peptides were incubated with 100 µM PHF6* at RT, as positive control PHF6* was incubated alone. The relative fluorescence of THT was monitored over 30 h.

In the next experiment the test system is tau fibrils. Briefly: ELISA binding of FAM-labeled peptides to tau fibrils. Conditions: plate coated with 20 µg/ml tau fibrils, FAM-labeled peptide in increasing concentrations, absorbance at 450 nm. As to the method:
(§1) Peptides were used that had been labeled with a FAM (=5/6-carboxyfluorescein) at the C-terminus. The peptides used were MM2 (= LTPHKHHKHLHA as L-enantiomer = SEQ ID NO: 6) and MM3 (SEQ ID NO: 1), to which a Lys (FAM)-NH2-residue had been attached at the C-terminus, respectively. The wells of a 96-well plate were coated with 20 µg/ml monomeric tau-protein or tau-fibrils and were incubated for 1h. After washing three times with PBS-T (phosphate-buffered saline with 0.1 % tween), the free binding sites were blocked for over a period of 1 hour. The respective peptides MM2-Lys(FAM)-NH2 and MM3-Lys(FAM)-NH2 were added (1 µg/ml, 5 µg/ml, 10 µg/ml, 20 µg/ml) and incubated for 1h. A specific anti-FITC-HRP antibody (anti-fluorescein-isothiocyanate-horseradish-peroxidase) was added in 1:1000 dilution and was incubated for 1h. Thereafter, TMB-substrate was added and incubated for 20 min. After […] of enzyme reaction by addition of 20% sulfuric acid, the absorption at 450 nm was determined. Measurements were performed in triplicate and the average values of the measured absorption of these triplicate samples as well as their standard deviations are shown in figure 1.
(§2) The binding affinity of MMD2 and MMD3 was tested using ELISA. […] The detection was done with anti-FAM HRP antibodies and absorbance was measured at 450 nm. […]

The next experiment has as its system tau monomers. Put plainly: ELISA binding of FAM-labeled peptides to tau monomers. Conditions: plate coated with 20 µg/ml tau monomers, FAM-labeled peptide in increasing concentrations, absorbance at 450 nm. As to the method:
as §1, §2
On the technique in general: ELISA stands for enzyme-linked immunosorbent assay.

For a further experiment, the system named is PHF6* fibrils. Put plainly: ELISA binding of FAM-labeled peptide to PHF6* fibrils. Conditions: plate coated with 50 µg/ml PHF6* fibrils, FAM-labeled peptide 10, 20, 50 µg/ml, absorption at 450 nm. The method, then: As used herein, "PHF6*-fibrils" are fibrils comprising the D-enantiomeric version of tau-peptide VQIINK (SEQ ID NO: 5). The wells of a 96-well plate were coated with 50 µg/ml PHF6*-fibrils and were incubated for 1h. After washing of wells three times with PBS-T (phosphate buffer saline with 0.1 % tween), the free binding sites were blocked for 1 hour. Peptide MMD3-Lys(FAM)-NH2 was added (10 µg/ml, 20 µg/ml and 50 µg/ml) and incubated for 1 h. A specific anti-FITC-HRP-antibody was added at a dilution of 1:1000 and incubated for 1h. Thereafter, TMB-substrate solution was added and incubated for 20 min. After termination of the enzyme reaction by additional 20 % sulfuric acid, absorption at 450 nm was measured. The absorption of the negative control (buffer only) was substracted. Triplicate measurements were performed, at the average values of the measured absorptions of the different samples are shown as well as their respective standard deviations.
To evaluate the binding properties of MMD3 to PHF6* fibrils, ELISA was performed with FAM-labeled version of the peptide. […] The peptide was added in an increasing concentration, the bound peptide was detected with anti-FAM antibodies. After adding the substrate, the absorption at 450 nm, which represents the binding affinities, was measured.

As to DPLKARHTSVWY [MM3], the “aggregation of tau (relative ThT fluorescence, positive control tau + heparin = 100%)” value in the experiment on tau-protein (molar ratio 1:5 (tau:peptide)) and in the experiment with tau-protein (molar ratio 1:10 (tau:peptide)) was “significantly inhibiting tau fibrils formation” throughout.

LTPHKHHKHLHA [MM2, reference compound]: the “aggregation of tau (relative ThT fluorescence, positive control tau + heparin = 100%)” value with tau-protein (molar ratio 1:5 (tau:peptide)) is “about 50%”; with tau-protein (molar ratio 1:10 (tau:peptide)), “nearly complete inhibition”.

Regarding “ahlhkhhkhptl (AHLHKHHKHPTL; all D-amino acids) [MMD2rev, reference compound]”, the “aggregation of tau (relative ThT fluorescence, positive control tau + heparin = 100%)” value in the experiment with tau-protein (molar ratio 1:10 (tau:peptide)) is “about 70%”.

As to “dplkarhtsvwy ([dD][dP][dL][dK][dA][dR][dH][dT][dS][dV][dW][dY]) [MMD3]”, in the experiment with PHF6*, the “inhibition of PHF6* fibril formation” value is recorded as “did indeed inhibit the formation of PHF6* fibrils”. The “binding to tau fibrils” value in the experiment on tau fibrils is “binding could be demonstrated”. For the same substance, the “aggregation of tau (relative ThT fluorescence, positive control tau + heparin = 100%)” value in the experiment on tau-protein (molar ratio 1:5 (tau:peptide)) and in the experiment on tau-protein (molar ratio 1:10 (tau:peptide)) was “inhibited formation of tau aggregates significantly” in each case. Moreover, the “binding to tau monomers” value with tau monomers was “binding could be demonstrated”. Besides, the “binding to PHF6* fibrils” value with PHF6* fibrils was “bound to PHF6* fibrils in concentration-dependent manner”.

In the case of ltphkhhkhlha [MMD2, reference compound], the “binding to tau fibrils” value with tau fibrils was “binding could be demonstrated”. Moreover, the “aggregation of tau (relative ThT fluorescence, positive control tau + heparin = 100%)” value with tau-protein (molar ratio 1:10 (tau:peptide)) was “about 90%”. In the experiment on tau monomers, the “binding to tau monomers” value is “binding could be demonstrated”.

Take “ywvsthraklpd ([dY][dW][dV][dS][dT][dH][dR][dA][dK][dL][dP][dD]) [MMD3rev]”: in the experiment with PHF6*, the “inhibition of PHF6* fibril formation” value is listed as “did indeed inhibit the formation of PHF6* fibrils”. The “aggregation of tau (relative ThT fluorescence, positive control tau + heparin = 100%)” value with tau-protein (molar ratio 1:5 (tau:peptide)) and with tau-protein (molar ratio 1:10 (tau:peptide)) was “inhibited formation of tau aggregates significantly” throughout.
